Results reported in patent US20260152501A1, “CYCLIN MODULATOR” (EUBULUS BIOTHERAPEUTICS (HONG KONG) LIMITED, priority 2022, published 2026).
Like-named read-outs stand apart in the source and are kept apart here.

Tests used:
Format in all cases: cell-based
[1] = tested on: H82 cells; assay: Cell proliferation experiment, H82 cells; settings: Homo sapiens, NCI-H82, cultured for 72 hours, Cell Titer-Glo, read-out: Cell antiproliferation data H82
Protocol: (§1) Reagents: RPMI-1640 medium, McCoy's 5A medium, IMDM medium, MEM medium, L-15 medium, fetal bovine serum, Penicillin-Streptomycin double antibody, trypsin, etc., 2-mercaptoethanol, NEAA, pyruvate, etc.
(§2) The test cells were cultured in conventional ways, and the cells should be passed for at least 2 generations before plating.
(§3) 25 μL of 1500 H82 and H69 cells were inoculated in a 384-well plate with black wall and transparent bottom, 25 μL of different concentrations of compounds were added, and the cells were cultured for 72 hours under condition of 37° C. and 5% CO2. The 384-well plate was equilibrated at room temperature, 25 μL of Cell Titer-Glo® reagent was added to each well, and the cells were lysed by shaking on a horizontal shaking shaker for 2 minutes, incubated at room temperature for 10 minutes to stabilize the luminescent signal, and then the chemiluminescent signal was detected using Envision.
(§4) All cells were subjected to IC50 test for corresponding samples. […]
(§5) IC50 was calculated according to the following formula:
(§6) [formula] • wherein, Min, Max and Slope represent the minimum, maximum and slope respectively.

[2] = tested on: HT-29 cells; assay: Cell proliferation experiment, HT-29 cells; settings: Cell Titer-Glo, read-out: Cell antiproliferation data HT-29
Protocol: as §1, §2
(§7) 25 μL of 1000 HT-29, N87, SKOV3, Colo-205 and MDA-MB-231 cells were inoculated in a 384-well plate with black wall and transparent bottom, 25 μL of different concentrations of compounds were added, and the cells were cultured overnight under condition of 37° C. and 5% CO2.
as §3
(§8) All cells were subjected to IC50 test for corresponding samples.
(§9) The fluorescence intensity of each well was detected using the Alarm blue method, and EC50 was calculated.
as §5, §6

[3] = tested on: MDA-MB-231 cells; assay: Cell proliferation experiment, MDA-MB-231 cells; settings: Cell Titer-Glo, read-out: Cell antiproliferation data MDA-MB-231
Protocol: as §1, §2, §7, §3, §8, §9, §5, §6

[4] = tested on: H69 cells; assay: Cell proliferation experiment, H69 cells; settings: cultured for 72 hours, Cell Titer-Glo, read-out: Cell antiproliferation data H69
Protocol: as §1, §2, §3, §4, §5, §6

[5] = tested on: Colo-205 cells; assay: Cell proliferation experiment, Colo-205 cells; settings: Cell Titer-Glo, read-out: Cell antiproliferation data Colo-205
Protocol: as §1, §2, §7, §3, §8, §9, §5, §6

[6] = tested on: N87 cells; assay: Cell proliferation experiment, N87 cells; settings: Cell Titer-Glo, read-out: Cell antiproliferation data N87
Protocol: as §1, §2, §7, §3, §8, §9, §5, §6

[7] = tested on: SKOV3 cells; assay: Cell proliferation experiment, SKOV3 cells; settings: Cell Titer-Glo, read-out: Cell antiproliferation data SKOV3
Protocol: as §1, §2, §7, §3, §8, §9, §5, §6

[8] = tested on: Cyclin K; assay: Immunohistochemistry (IHC) staining of Cyclin K in HepG2 cells; settings: incubated with compound 2 hours, CCNK antibody
Protocol: Appropriate amount of compounds were added to the cultured cells. The cells were incubated in a tissue culture incubator at 37° C. for 2 hours.
After washing the cultured cells twice with PBS, 100 μL 10% neutral buffered formalin were added and the cells were fixed for 20 minutes.
After washing 3 times with PBS, immunohistochemical staining was performed using CCNK antibody and general two-step detection kit (mouse/rabbit enhanced polymer detection system, PV-9000, Zsbio Inc, Beijing).
Specifically, 100 μL of endogenous peroxidase blocker in the kit was added, cells were incubated at room temperature for 10 minutes; rinsed with PBS buffer for 3 minutes×3 times.
100 μL CCNK antibody 1:5000 dilution was added, and the cells were incubated at 37° C. for 60 minutes; rinsed with PBS buffer for 3 minutes×3 times.
100 μL reaction enhancer was added, and the cells were incubated at 37° C. for 20 minutes; rinsed with PBS buffer for 3 minutes×3 times.
100 μL enhanced enzyme-labeled goat anti-mouse/rabbit IgG polymer was added, and the cells were incubated at 37° C. for 20 minutes; rinsed with PBS buffer for 3 minutes×3 times.
The cells were placed in 75% ethanol, soaked for 3 minutes×2 times; placed in 95% ethanol, soaked for 3 minutes×2 times; after removing excess liquid, placed in anhydrous ethanol, soaked for 3 minutes×3 times; after removing excess liquid, air dried, observed under a microscope and taken pictures after sealing.

[9] = tested on: HepG2 cells; assay: Antiproliferative effect on HepG2 cells; settings: Homo sapiens
Protocol: as §1, §2, §8, §9, §5, §6

[10] = Homo sapiens, COLO 205, Colo-205 cells
[11] = Homo sapiens, SK-OV-3, SKOV3 cells

| Compound | IC50 ([2]; Homo sapiens) [nM] | IC50 ([3]; Homo sapiens) [nM] | IC50 [5, 10] [nM] | IC50 [7, 11] [nM] | IC50 [9] [nM] | IC50 [1] [nM] | IC50 ([4]; Homo sapiens, NCI-H69, 72 h) [nM] | IC50 [6] [nM] | Cyclin K IHC data of HepG2 cells [8] | further results |
| --- | --- | --- | --- | --- | --- | --- | --- | --- | --- | --- |
| CCn1cnc2c(NCc3ccc(-c4cccc(CO)n4)cc3)nc(N3CCNCC3)nc21 [UB-002] | ≤ 100 | ≤ 100 | ≤ 100 | – | – | 100 to 300 | ≤ 100 | ≤ 100 | – | – |
| CC(C)n1cnc2c(NCc3ccc(-c4ccccc4)cc3)nc(N3CCC(N)CC3)nc21 [UB-017, N-([1,1′-biphenyl]-4-ylmethyl)-2-(4-amino-piperidin-1-yl)-9-isopropyl-9H-purin-6-amine] | ≤ 100 | ≤ 100 | 100 to 300 | 100 to 300 | – | 100 to 300 | 100 to 300 | ≤ 100 | – | – |
| CC(C)n1cnc2c(NCc3ccc(-c4ccccc4)cc3)nc(N[C@@H]3CCCNC3)nc21 [UB-014, (R)-N6-([1,1′-biphenyl]-4-ylmethyl)-9-isopropyl-N2-(Piperidin-3-yl)-9H-purin-2,6-diamine] | ≤ 100 | ≤ 100 | ≤ 100 | 100 to 300 | – | ≤ 100 | 100 to 300 | ≤ 100 | – | – |
| CCn1cnc2c(NCc3ccc(-c4cccc(CO)c4)cc3)nc(N3CCNCC3)nc21 [UB-004] | ≤ 100 | ≤ 100 | 100 to 300 | 100 to 300 | – | – | – | – | – | IC50 [4]: > 300 nM |
| CCn1cnc2c(NCc3ccc(-c4cccc(CO)c4)cc3)nc(N3CCNCC3)nc21 [UB-005] | – | – | – | – | – | ≤ 100 | – | ≤ 100 | – | IC50 [2]: ≤ 100 nM; IC50 [3]: ≤ 100 nM; IC50 [4]: ≤ 100 nM; IC50 ([7]; SKOV3 cells): ≤ 100 nM; IC50 ([5]; Colo-205 cells): ≤ 100 nM |
| CC(C)n1cnc2c(NCc3ccc(-c4ccccc4)cc3)nc(N3CCC[C@H](N)C3)nc21 [UB-012, (S)-N-([1,1′-biphenyl]-4-ylmethyl)-2-(3-aminopiperidin-1-yl)-9-isopropyl-9H-purin-6-amine] | ≤ 100 | ≤ 100 | ≤ 100 | 100 to 300 | – | ≤ 100 | 100 to 300 | ≤ 100 | – | – |
| CCn1cnc2c(NCc3ccc(-c4cccc(CO)n4)cc3)nc(N3CCOCC3)nc21 [UB-001] | ≤ 100 | ≤ 100 | 100 to 300 | – | – | 100 to 300 | ≤ 100 | ≤ 100 | – | – |
| CC(C)n1cnc2c(NCc3ccc(-c4ccccc4)cc3)nc(OC[C@H]3CNCCN3)nc21 [UB-034, (R)-N-([1,1′-biphenyl]-4-ylmethyl)-9-isopropyl-2-(piperazin-2-ylmethoxy)-9H-purin-6-amine] | – | – | – | – | 50 to 100 | – | – | – | C (93 nM < C <= 278 nM) | – |
| CC(C)n1cnc2c(NCc3ccc(-c4ccccc4)cc3)nc(N[C@H]3CC[C@@H](N)C3)nc21 [UB-039, N6-([1,1′-biphenyl]-4-yl-methyl)-N2-((1S,3R)-3-aminocyclopentyl)-9-isopropyl-9H-purin-2,6-diamine] | – | – | – | – | 50 to 100 | – | – | – | C (93 nM < C <= 278 nM) | – |
| CC(C)n1cnc2c(NCc3ccc(-c4ccccc4)cc3)nc(N[C@H]3C[C@H](N)C3)nc21 [UB-061, N6-([1,1′-biphenyl]-4-yl-methyl)-N2-((1r,3r)-3-aminocyclobutyl)-9-isopropyl-9H-purin-2,6-diamine] | – | – | – | – | < 50 | – | – | – | B (31 nM < B <= 93 nM) | – |
| c1ccc(-c2ccc(CNc3nc(N4CCNCC4)nc4c3ncn4C3CCC3)cc2)cc1 [UB-052, N-([1,l′-biphenyl]-4-ylmethyl)-9-cyclobutyl-2-(piperazin-1-yl)-9H-purin-6-amine] | – | – | – | – | < 50 | – | – | – | C (93 nM < C <= 278 nM) | – |
| CCn1cnc2c(NCc3ccc(-c4ccccn4)cc3)nc(N[C@H]3CC[C@H](O)CC3)nc21 [UB-006] | ≤ 100 | ≤ 100 | ≤ 100 | ≤ 100 | – | – | > 300 | – | – | – |
| CC(C)n1cnc2c(NCc3ccc(-c4ccccc4)cc3)nc(N[C@H]3C[C@@H](N)C3)nc21 [UB-041, N6-([1,1′-biphenyl]-4-yl-methyl)-N2-((1s,3s)-3-aminocyclobutyl)-9-isopropyl-9H-purin-2,6-diamine] | – | – | – | – | < 50 | – | – | – | C (93 nM < C <= 278 nM) | – |
| CCn1cnc2c(NCc3ccc(-c4cccc(CO)n4)cc3)nc(N3CCN(C)CC3)nc21 [UB-003] | ≤ 100 | ≤ 100 | ≤ 100 | – | – | – | 100 to 300 | – | – | – |
| c1ccc(-c2ccc(CNc3nc(N4CCNCC4)nc4c3ncn4-c3ccccc3)cc2)cc1 [UB-053, N-([1,1′-biphenyl]-4-ylmethyl)-9-phenyl-2-(piperazin-1-yl)-9H-purin-6-amine] | – | – | – | – | > 300 | – | – | – | D (D > 278 nM) | – |

Continued, in another order:

| IC50 ([2]; Homo sapiens) [nM] | IC50 ([3]; Homo sapiens) [nM] | IC50 [5, 10] [nM] | IC50 [7, 11] [nM] | IC50 [9] [nM] | Compound | IC50 [1] [nM] | IC50 ([4]; Homo sapiens, NCI-H69, 72 h) [nM] | IC50 [6] [nM] | Cyclin K IHC data of HepG2 cells [8] | further results |
| --- | --- | --- | --- | --- | --- | --- | --- | --- | --- | --- |
| 100 to 300 | 100 to 300 | > 300 | > 300 | – | CC(C)n1cnc2c(NCc3ccc(-c4ccccc4)cc3)nc(N3CCN(C)CC3)nc21 [UB-011, N-([1,l′-biphenyl]-4-ylmethyl)-9-isopropyl-2-(4-methylpiperazin-1-yl)-9H-purin-6-amine] | 100 to 300 | > 300 | 100 to 300 | – | – |
| > 300 | > 300 | > 300 | > 300 | – | CC(C)n1cnc2c(NCc3ccc(-c4ccccc4)cc3)nc(N3CCOCC3)nc21 [UB-009, N-([1,1′-biphenyl]-4-ylmethyl)-9-isopropyl-2-morpholino-9H-purin-6-amine] | > 300 | > 300 | > 300 | – | – |
| – | – | – | – | > 300 | CC(C)n1cnc2c(NCc3ccc(-c4ccccc4OCCN)cc3)nc(N3CCNCC3)nc21 [UB-048, N-((2′-(2-aminoethoxy)-[1,1′-biphenyl]-4-yl)methyl)-9-isopropyl-2-(piperazin-1-yl)-9H-purin-6-amine] | – | – | – | D (D > 278 nM) | – |
| – | – | – | – | 100 to 300 | CC(C)n1cnc2c(NCc3ccc(-c4ccccc4)c(OCCO)c3)nc(N3CCNCC3)nc21 [UB-043, 2-((4-(((9-isopropyl-2-(piperazin-1-yl)-9H-purin-6-yl)amino)methyl)-[1,1′-biphenyl]-2-yl)oxy)ethanol] | – | – | – | D (D > 278 nM) | – |
| – | – | – | – | < 50 | CC(C)n1cnc2c(NCc3ccc(-c4ccccc4)c(O)c3)nc(N3CCNCC3)nc21 [UB-042] | – | – | – | B (31 nM < B <= 93 nM) | – |
| – | – | – | – | < 50 | CC(C)n1cnc2c(NCc3ccc(-c4ccccc4)cc3)nc(N3CCN[C@@H](C)C3)nc21 [UB-026, (S)-N-([1,1′-biphenyl]-4-ylmethyl)-9-isopropyl-2-(3-methylpiperazin-1-yl)-9H-purin-6-amine] | – | – | – | B (31 nM < B <= 93 nM) | – |
| – | – | – | – | > 300 | CC(C)n1cnc2c(NCc3ccc(-c4ccccc4)c(OCCN)c3)nc(N3CCNCC3)nc21 [UB-062, N-((2-(2-aminoethoxy)-[1,l′-biphenyl]-4-yl)methyl)-9-isopropyl-2-(piperazin-1-yl)-9H-purin-6-amine] | – | – | – | D (D > 278 nM) | – |
| – | – | – | – | 100 to 300 | CC(C)n1cnc2c(NCc3ccc(-c4ccccc4OCCCC#N)cc3)nc(N3CCNCC3)nc21 [UB-051, 4-((4′-(((9-isopropyl-2-(piperazin-1-yl)-9H-purin-6-yl)amino)methyl)-[1,1′-biphenyl]-2-yl)oxy)butyronitrile] | – | – | – | D (D > 278 nM) | – |
